Values quoted from earlier work, collected in patent US20090186859A1, “DIAZENIUMDIOLATED NON-STEROIDAL ANTI-INFLAMMATORY DRUGS, COMPOSITIONS THEREOF, AND RELATED METHODS” (THE UNITED STATES OF AMERICA, AS REPRESENTED BY THE SEC., …, priority 2006, published 2009).

Tests used:
[1] = test system: tumor; details: APC(Min)+ mouse model
[2] = test system: colon carcinogenesis; details: AOM-treated rat model
[3] = test system: colon polyp formation; details: those at high risk, including those already treated for colorectal cancer
[4] = test system: hormone-positive tumors (estrogen receptor (ER) or progesterone receptor (PR)-positive); details: women who took aspirin seven or more times a week vs women who did not take it
[5] = test system: intestinal tumorigenesis; details: APC (DELTA 716) mice
[6] = test system: colonic aberrant crypt foci; details: male F344 rats
[7] = long-term administration to animals

Structure (SMILES): CC(C(=O)O)c1ccc(-c2ccccc2)c(F)c1 (stereo not drawn) [flurbiprofen]
- anti-tumor effects [1]: demonstrated anti-tumor effects

Structure (SMILES): CC(=O)Oc1ccccc1C(=O)O [aspirin, acetylsalicylic acid]
- inhibition of colon carcinogenesis [2]: effectively inhibit colon carcinogenesis
- colon polyp formation [3]: significantly reduce colon polyp formation
- lower risk of developing hormone-positive tumors [4]: 26%

Structure (SMILES): CS(=O)(=O)c1ccc(C2=C(c3ccc(F)c(F)c3)C(=O)OC2)cc1 [MF-Tricyclic]
- intestinal tumorigenesis [5]: blocks intestinal tumorigenesis

Structure (SMILES): CC1=C(CC(=O)O)c2cc(F)ccc2/C1=C\c1ccc([S+](C)[O-])cc1 (stereo not drawn) [sulindac]
- inhibition of colon carcinogenesis [2]: effectively inhibit colon carcinogenesis

Structure (SMILES): CN1C(C(=O)Nc2ccccn2)=C(O)c2ccccc2S1(=O)=O [piroxicam]
- inhibition of colon carcinogenesis [2]: effectively inhibit colon carcinogenesis

Structure (SMILES): COc1ccc2c(c1)c(CC(=O)O)c(C)n2C(=O)c1ccc(Cl)cc1 [indomethacin]
- inhibition of colon carcinogenesis [2]: effectively inhibit colon carcinogenesis

Structure (SMILES): COc1ccc2cc(CCC(C)=O)ccc2c1 [nabumetone]
- formation of colonic aberrant crypt foci [6]: inhibit formation of colonic aberrant crypt foci

Structure (SMILES): CS(=O)(=O)Nc1ccc([N+](=O)[O-])cc1Oc1ccccc1 [nemisulide]
- formation of colonic aberrant crypt foci [6]: inhibit formation of colonic aberrant crypt foci

Structure (SMILES): CC(C)Cc1ccc(C(C)C(=O)O)cc1 (stereo not drawn) [ibuprofen]
- inhibition of colon carcinogenesis [2]: effectively inhibit colon carcinogenesis

Structure (SMILES): O=NN1CCC[C@H]1C(=O)O [N-nitrosoproline]
- tumorigenicity [7]: none of these studies showed it to be tumorigenic
